Source: publication PMC6838683, “Discovery of Human Signaling Systems: Pairing Peptides to G Protein-Coupled Receptors” (Cell, 2019)
Residues, ends and D or L forms follow the SMILES beside them. No end group written: not given here.

Experiments:
Assay type in all cases: cell-based
GPR1 [1] = target: T1, GPR1 (Homo sapiens, UniProt P46091); assay: β-arrestin recruitment (PathHunter); conditions: receptor GPR1, mean, SEM and n (2-3); for EC50: read-out: b-arrestin recruitment assays (PathHunter) pEC50 (converted)
T1 sequence (P46091 1-355): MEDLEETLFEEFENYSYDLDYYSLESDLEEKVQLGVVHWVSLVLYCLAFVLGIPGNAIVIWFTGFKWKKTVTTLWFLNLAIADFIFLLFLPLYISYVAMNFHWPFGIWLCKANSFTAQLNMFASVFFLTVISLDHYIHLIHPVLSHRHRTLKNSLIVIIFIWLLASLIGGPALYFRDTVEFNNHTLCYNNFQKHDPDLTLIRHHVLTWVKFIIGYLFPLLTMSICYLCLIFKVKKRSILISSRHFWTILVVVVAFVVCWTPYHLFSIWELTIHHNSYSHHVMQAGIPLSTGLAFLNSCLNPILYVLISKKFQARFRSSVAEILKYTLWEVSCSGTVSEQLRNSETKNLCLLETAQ
Description: PathHunter eXpress Assays (DiscoverX) were performed in 384-well format according to the manufacturer’s recommendations. GPR1 cells were incubated with peptides for 90 min and luminescence measured using an EnSpire 2300 Multimode plate reader (PerkinElmer).

GPR1 [2] = target: T1, GPR1; assay: β-arrestin recruitment (Tango), validation; design: host or cells: HTLA cells (HEK293-derived); conditions: receptor GPR1, mean, SEM and n (2-3); for EC50: read-out: b-arrestin recruitment assays (Tango) pEC50 (converted)
BB3 = target: T2, BB3 (Homo sapiens, UniProt P32247); assay: IP1 accumulation (Gq/11), HTRF; conditions: receptor BB3; mean, SEM and n (2-4); read-out: IP1 accumulation assays pEC50 (converted)
T2 construct: hIL-2Ra signal peptide (N); expressed in transfected cells
T2 sequence (P32247 2-399 limits assumed): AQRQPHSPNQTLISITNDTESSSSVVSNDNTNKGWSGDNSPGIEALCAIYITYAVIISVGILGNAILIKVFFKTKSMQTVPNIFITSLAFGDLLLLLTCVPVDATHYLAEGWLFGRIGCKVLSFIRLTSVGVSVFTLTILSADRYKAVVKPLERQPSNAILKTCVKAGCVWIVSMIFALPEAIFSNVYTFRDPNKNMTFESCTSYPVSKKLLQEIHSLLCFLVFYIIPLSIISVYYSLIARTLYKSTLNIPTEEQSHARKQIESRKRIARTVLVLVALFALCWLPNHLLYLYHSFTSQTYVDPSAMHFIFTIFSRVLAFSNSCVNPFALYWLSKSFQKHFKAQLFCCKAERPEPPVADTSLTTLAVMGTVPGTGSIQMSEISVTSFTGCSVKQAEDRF

Row | EC50 (GPR1 [1]) [nM] | EC50 (GPR1 [2]) [µM] | b-arrestin recruitment assays (PathHunter) Emax (fold change) (GPR1 [1]) | b-arrestin recruitment assays (Tango) Emax (fold change) (GPR1 [2]) | EC50 (BB3) [nM] | Molecule
1 | 2290 | 3.02 | – | – | 525 | CSCC[C@H](NC(=O)[C@H](CCCCN)NC(=O)[C@@H](NC(=O)[C@H](CC(C)C)NC(=O)[C@@H](NC(=O)[C@@H](NC(=O)CNC(=O)CNC(=O)CNC(=O)[C@H](C)NC(=O)[C@@H]1CCCN1C(=O)[C@H](CC(C)C)NC(=O)[C@@H]1CCCN1C(=O)[C@@H](N)C(C)C)[C@@H](C)O)C(C)C)[C@@H](C)O)C(=O)N[C@@H](Cc1ccc(O)cc1)C(=O)N1CCC[C@H]1C(=O)N[C@@H](CCCNC(=N)N)C(=O)O [Peptide 167.2] (H-VPLPAGGGTVLTKMYPR-OH)
2 | 1.45 | 8.51 | – | – | – | CSCC[C@H](NC(=O)[C@H](Cc1ccc(O)cc1)NC(=O)[C@@H](N)CC(=O)O)C(=O)NCC(=O)N[C@@H](Cc1c[nH]c2ccccc12)C(=O)N[C@@H](CCSC)C(=O)N[C@@H](CC(=O)O)C(=O)N[C@@H](Cc1ccccc1)C(N)=O [Peptide 194.1]
3 | 0.049 | 1.91e-06 | – | – | – | C[C@H](NC(=O)[C@@H](N)CCCCN)C(=O)N1CCC[C@H]1C(=O)N[C@@H](CO)C(N)=O [Peptide 194.3] (H-KAPS-NH2)
4 | 0.224 | 0.0933 | – | – | – | CC[C@H](C)[C@H](NC(=O)[C@H](CCCNC(=N)N)NC(=O)[C@H](Cc1c[nH]cn1)NC(=O)[C@H](CO)NC(=O)[C@@H]1CCCN1C(=O)[C@H](CC(=O)O)NC(=O)[C@H](CC(C)C)NC(=O)[C@H](CC(N)=O)NC(=O)[C@H](CCC(N)=O)NC(=O)[C@H](CC(C)C)NC(=O)[C@H](CC(N)=O)NC(=O)[C@H](CCCCN)NC(=O)[C@@H](NC(=O)[C@@H](NC(=O)[C@H](CO)NC(=O)[C@H](CCSC)NC(=O)[C@H](CCCNC(=N)N)NC(=O)CNC(=O)[C@H](CO)NC(=O)[C@@H]1CCCN1C(=O)[C@H](C)NC(=O)[C@@H](N)CCCCN)[C@@H](C)CC)C(C)C)C(=O)N[C@@H](CO)C(=O)N[C@@H](CC(=O)O)C(=O)N[C@@H](CCCNC(=N)N)C(=O)N[C@@H](CC(=O)O)C(=O)N[C@@H](Cc1ccc(O)cc1)C(=O)N[C@@H](CCSC)C(=O)NCC(=O)O [Peptide 194.4] (H-KAPSGRMSIVKNLQNLDPSHRISDRDYMG-OH)
5 | 0.135 | 0.0229 | – | – | – | CC[C@H](C)[C@H](NC(=O)[C@H](CCCNC(=N)N)NC(=O)[C@H](Cc1c[nH]cn1)NC(=O)[C@H](CO)NC(=O)[C@@H]1CCCN1C(=O)[C@H](CC(=O)O)NC(=O)[C@H](CC(C)C)NC(=O)[C@H](CC(N)=O)NC(=O)[C@H](CCC(N)=O)NC(=O)[C@H](CC(C)C)NC(=O)[C@H](CC(N)=O)NC(=O)[C@H](CCCCN)NC(=O)[C@@H](NC(=O)[C@@H](NC(=O)[C@H](CO)NC(=O)[C@H](CCSC)NC(=O)[C@H](CCCNC(=N)N)NC(=O)CNC(=O)[C@H](CO)NC(=O)[C@@H]1CCCN1C(=O)[C@H](C)NC(=O)[C@@H](N)CCCCN)[C@@H](C)CC)C(C)C)C(=O)N[C@@H](CO)C(=O)N[C@@H](CC(=O)O)C(=O)N[C@@H](CCCNC(=N)N)C(=O)O [Peptide 194.5] (H-KAPSGRMSIVKNLQNLDPSHRISDR-OH)
6 | 28200 | 0.0759 | 4.0 | 2.0 | – | KAPSGRMSIVKNLQNLDPSHRISDRDYMGWMDFGRRSAEEYEYPS [Peptide 194.6]

Second part, the molecule before the results:

Row | Molecule | EC50 (GPR1 [1]) [nM] | EC50 (GPR1 [2]) [µM] | b-arrestin recruitment assays (PathHunter) Emax (fold change) (GPR1 [1]) | b-arrestin recruitment assays (Tango) Emax (fold change) (GPR1 [2]) | EC50 (BB3) [nM]
7 | CC(C)C[C@H](NC(=O)[C@H](CCCNC(=N)N)NC(=O)[C@H](CC(=O)O)NC(=O)[C@H](CC(C)C)NC(=O)[C@@H]1CCCN1C(=O)[C@H](CO)NC(=O)CNC(=O)[C@H](Cc1ccccc1)NC(=O)CNC(=O)[C@H](CO)NC(=O)[C@H](Cc1ccccc1)NC(=O)[C@@H](N)CO)C(=O)N[C@@H](CO)C(=O)N[C@@H](C)C(=O)NCC(=O)N[C@@H](CO)C(=O)N[C@H](C(=O)N[C@@H](CC(=O)O)C(=O)N[C@@H](Cc1c[nH]cn1)C(=O)N[C@@H](CCCCN)C(N)=O)C(C)C [Peptide 141.1] (H-SFSGFGSPLDRLSAGSVDHK-NH2) | 14100 | 14.5 | – | – | –
8 | CC(C)C[C@H](NC(=O)[C@H](CCCNC(=N)N)NC(=O)[C@H](CC(=O)O)NC(=O)[C@H](CC(C)C)NC(=O)[C@@H]1CCCN1C(=O)[C@H](CO)NC(=O)CNC(=O)[C@H](Cc1ccccc1)NC(=O)CNC(=O)[C@H](CO)NC(=O)[C@H](Cc1ccccc1)NC(=O)[C@H](CO)NC(=O)[C@H](CCCNC(=N)N)NC(=O)[C@@H](N)CCCCN)C(=O)N[C@@H](CO)C(=O)N[C@@H](C)C(=O)NCC(=O)N[C@@H](CO)C(=O)N[C@H](C(=O)N[C@@H](CC(=O)O)C(=O)N[C@@H](Cc1c[nH]cn1)C(=O)N[C@@H](CCCCN)C(=O)NCC(=O)N[C@@H](CCCCN)C(=O)N[C@@H](CCC(N)=O)C(=O)O)C(C)C [Peptide 141.2] (H-KRSFSGFGSPLDRLSAGSVDHKGKQ-OH) | 1170 | 2.63 | – | – | –
9 | CC(C)C[C@H](NC(=O)[C@H](CCCNC(=N)N)NC(=O)[C@H](CC(=O)O)NC(=O)[C@H](CC(C)C)NC(=O)[C@@H]1CCCN1C(=O)[C@H](CO)NC(=O)CNC(=O)[C@H](Cc1ccccc1)NC(=O)CNC(=O)[C@H](CO)NC(=O)[C@H](Cc1ccccc1)NC(=O)[C@H](CO)NC(=O)[C@H](CCCNC(=N)N)NC(=O)[C@@H](N)CCCCN)C(=O)N[C@@H](CO)C(=O)N[C@@H](C)C(=O)NCC(=O)N[C@@H](CO)C(=O)N[C@H](C(=O)N[C@@H](CC(=O)O)C(=O)N[C@@H](Cc1c[nH]cn1)C(=O)N[C@@H](CCCCN)C(=O)NCC(=O)N[C@@H](CCCCN)C(=O)N[C@@H](CCC(N)=O)C(=O)N[C@@H](CCCNC(=N)N)C(=O)N[C@@H](CCCCN)C(=O)N[C@H](C(=O)N[C@H](C(=O)N[C@@H](CC(=O)O)C(=O)N[C@@H](Cc1c[nH]cn1)C(=O)N1CCC[C@H]1C(=O)O)C(C)C)C(C)C)C(C)C [Peptide 141.3] (H-KRSFSGFGSPLDRLSAGSVDHKGKQRKVVDHP-OH) | 550 | 2.63 | – | – | –
10 | CC(C)C[C@H](NC(=O)[C@H](CCCNC(=N)N)NC(=O)[C@H](CC(=O)O)NC(=O)[C@H](CC(C)C)NC(=O)[C@@H]1CCCN1C(=O)[C@H](CO)NC(=O)CNC(=O)[C@H](Cc1ccccc1)NC(=O)CNC(=O)[C@H](CO)NC(=O)[C@H](Cc1ccccc1)NC(=O)[C@@H](N)CO)C(=O)N[C@@H](CO)C(=O)N[C@@H](C)C(=O)NCC(=O)N[C@@H](CO)C(=O)N[C@H](C(=O)N[C@@H](CC(=O)O)C(=O)N[C@@H](Cc1c[nH]cn1)C(=O)N[C@@H](CCCCN)C(=O)NCC(=O)N[C@@H](CCCCN)C(=O)N[C@@H](CCC(N)=O)C(=O)O)C(C)C [Peptide 141.5] (H-SFSGFGSPLDRLSAGSVDHKGKQ-OH) | 20900 | 16.2 | 6.2 | 13.6 | –
11 | CC(C)C[C@H](NC(=O)[C@H](CCCNC(=N)N)NC(=O)[C@H](CC(=O)O)NC(=O)[C@H](CC(C)C)NC(=O)[C@@H]1CCCN1C(=O)[C@H](CO)NC(=O)CNC(=O)[C@H](Cc1ccccc1)NC(=O)CNC(=O)[C@H](CO)NC(=O)[C@H](Cc1ccccc1)NC(=O)[C@@H](N)CO)C(=O)N[C@@H](CO)C(=O)N[C@@H](C)C(=O)NCC(=O)N[C@@H](CO)C(=O)N[C@H](C(=O)N[C@@H](CC(=O)O)C(=O)N[C@@H](Cc1c[nH]cn1)C(=O)N[C@@H](CCCCN)C(=O)NCC(=O)N[C@@H](CCCCN)C(=O)N[C@@H](CCC(N)=O)C(=O)N[C@@H](CCCNC(=N)N)C(=O)N[C@@H](CCCCN)C(=O)N[C@H](C(=O)N[C@H](C(=O)N[C@@H](CC(=O)O)C(=O)N[C@@H](Cc1c[nH]cn1)C(=O)N1CCC[C@H]1C(=O)O)C(C)C)C(C)C)C(C)C [Peptide 141.6] (H-SFSGFGSPLDRLSAGSVDHKGKQRKVVDHP-OH) | 3160 | 16.6 | – | – | –
12 | KRSFSGFGSPLDRLSAGSVDHKGKQRKVVDHPKRRFGIPMDRI [Peptide 141.4] | 39.8 | 10.2 | – | – | –
13 | SFSGFGSPLDRLSAGSVDHKGKQRKVVDHPKRRFGIPMDRI-NH2 [Peptide 141.7] | 575 | 26.9 | – | – | –
